Test results from patent US10011552B2, “Process for preparation of herbicidal carboxylic acid salts” (ROTAM AGROCHEM INTERNATIONAL COMPANY LIMITED, priority 2013, dated 2018).

Assay: pH value of the dried carboxylic acid salt in water
Format: physicochemical
Details: dried salt cake dissolved in water

Compared with `Cc1cc(Cl)ccc1OCC(=O)[O-].[K+]` [MCPA-potassium], `O=C([O-])c1c(Cl)ccc2cc(Cl)cnc12.[Na+]` [quinclorac-sodium] is higher in “pH value in water” value: 9 for the first, 10 for the second.

Compared with `O=C(O)c1nc(Cl)ccc1Cl.OCCNCCO` [clopyralid-bis(2-hydroxyethyl)ammonium], `COc1c(Cl)ccc(Cl)c1C(=O)[O-].[Na+]` [dicamba-sodium] is lower in “pH value in water” value: 8 for the first, 7 for the second.
